Laboratory results from patent US20230404887A1, “COMPOSITIONS TO LIMIT OR ELIMINATE THE PERCEPTION OF SWEAT MALODOR” (Firmenich SA, priority 2020, published 2023).

Columns and labels:
[1] = Expert perfumer evaluation of malodor reduction, dynamic olfactometer, against 3M2HA; parameters: species or system human; conditions: for EFFECTIVE CONCENTRATION: MO 3M2HA held fixed at mid-intensity (0.5), headspace concentration providing an effective level; for EXPERT RATING: MO 3M2HA held fixed at mid-intensity (0.5 on scale 0-1), rating of degree of malodor reduction at the effective concentration
Experimental: (§1) The effectiveness of perfuming materials in compositions to reduce the perception of, for example, axillary sweat malodors, was evaluated by an expert perfumer by 1) selecting target axillary malodor components, 2) delivering target malodor components and candidate malodor reducing materials to the nose of an expert perfumer at carefully controlled concentrations, 3) having the expert perfumer identify the concentration at which malodor reduction was obtained, and 4) rating the degree of reduction achieved at the concentration identified in step 3.
(§2) In this method, a dynamic multi-channel olfactometer was used to precisely deliver known gas phase concentrations of the test materials, using forced evaporation, into a stream of air emanating from a smelling port. The appropriate concentration of the malodor component was established prior to its being mixed with the candidate malodor reducing substance. The concentration was set at a concentration sufficient to produce an intensity of 0.5 (mid-intensity) on a scale of 0-1. The expert perfumer then dynamically adjusted the concentration of the candidate malodor reducing substance to determine the effective concentration, while maintaining a fixed concentration of the malodor component. Once the appropriate concentration had been determined, the expert perfumer evaluated the perception of the mixtures repeatedly over a period of several minutes, taking breaks in between sniffs to avoid adaptation to the components being tested, before providing a rating.
(§3) Tests were performed in a forced-evaporation, dynamic olfactometer, with malodor component concentrations held fixed at a mid-intensity. Ratings of effectiveness were based in the following scale: −2 (significant increase in malodor), −1 (slight increase in malodor), 0 (no effect), 1 (slight malodor reduction), 2 (good malodor reduction), 3 (complete malodor reduction). The malodor (MO) component abbreviations are 3H3MHA (3-methyl-3-hydroxyhexanoic acid), 3M2HA (3-methyl-2-hexenoic acid), 3M3SH (3-methyl-3-sulphanylhexanol).

[2] = Expert perfumer evaluation of malodor reduction, dynamic olfactometer, against 3H3MHA; parameters: species or system human; key to EXPERT RATING: −2: significant increase in malodor; −1: slight increase in malodor; 0: no effect; 1: slight malodor reduction; 2: good malodor reduction; 3: complete malodor reduction; conditions: for EFFECTIVE CONCENTRATION: MO 3H3MHA held fixed at mid-intensity (0.5), headspace concentration providing an effective level; for EXPERT RATING: MO 3H3MHA held fixed at mid-intensity (0.5 on scale 0-1), rating of degree of malodor reduction at the effective concentration
Experimental: The effectiveness of perfuming materials in compositions to reduce the perception of, for example, axillary sweat malodors, was evaluated by an expert perfumer by 1) selecting target axillary malodor components, 2) delivering target malodor components and candidate malodor reducing materials to the nose of an expert perfumer at carefully controlled concentrations, 3) having the expert perfumer identify the concentration at which malodor reduction was obtained, and 4) rating the degree of reduction achieved at the concentration identified in step 3. […] Two surprising results were be observed. The first is that not all tested materials yielded complete malodor reduction, often differing depending on which component they were tested against. […] Intensity and concentration were material-dependent and spanned a wide range of values on both axes. […] Thus, neither the required concentrations, nor performance ratings could be predicted a priori by one skilled in the art, yet are necessary and sufficient for designing malodor reducing compositions for use in perfuming products.
as §2, §3

[3] = Expert perfumer evaluation of malodor reduction, dynamic olfactometer, against 3M3SH; parameters: species or system human; conditions: for EFFECTIVE CONCENTRATION: MO 3M3SH held fixed at mid-intensity (0.5), headspace concentration providing an effective level; for EXPERT RATING: MO 3M3SH held fixed at mid-intensity (0.5 on scale 0-1), rating of degree of malodor reduction at the effective concentration
Experimental: as §1, §2, §3

Compound | EFFECTIVE CONCENTRATION [1] | EXPERT RATING [1] | EFFECTIVE CONCENTRATION [2] | EXPERT RATING [2] | EFFECTIVE CONCENTRATION [3] | EXPERT RATING [3]
CC(C)=CCCC(C)CC=O (racemic) | 1.30E−01 micrograms/L AIR | 2 | 1.30E−01 micrograms/L AIR | 3 |  | 
CC(=O)c1ccc2ccccc2c1 | 1.37E−02 micrograms/L AIR | 3 | 1.37E−02 micrograms/L AIR | 3 | 3.42E−02 micrograms/L AIR | 2
(+−)-(3E)-4-(2,6,6-trimethyl-1/2-cyclohexen-1-yl)-3-buten-2-one | 4.00E−01 micrograms/L AIR | 3 | 2.00E−01 micrograms/L AIR | 3 | 8.00E−01 micrograms/L AIR | 2
CCCCC[C@H]1C(=O)CC[C@@H]1CC(=O)OC (racemic) [METHYL 2-((1RS,2RS)-3-OXO-2-PENTYLCYCLOPENTYL)ACETATE] | 7.17E−01 micrograms/L AIR | 2 | 5.73E−01 micrograms/L AIR | 3 | 7.17E−01 micrograms/L AIR | 2
CCc1occc(=O)c1O [2-ETHYL-3-HYDROXY-4(4H)-PYRANONE] | 1.83E−02 micrograms/L AIR | 3 |  |  | 1.83E−02 micrograms/L AIR | 2
3-(2/4-ETHYLPHENYL)-2,2-DIMETHYLPROPANAL | 3.67E−01 micrograms/L AIR | 3 |  |  | 7.33E−01 micrograms/L AIR | 2
COc1ccc(COC(C)=O)cc1 [4-METHOXYBENZYL ACETATE] | 1.18E+00 micrograms/L AIR | 3 |  |  | 2.37E+00 micrograms/L AIR | 2
CC(C)=C[C@H]1C[C@@H](C)CCO1 (racemic) [(2RS,4SR)-4-METHYL-2-(2-METHYL-1-PROPEN-1-YL)TETRAHYDRO-2H-PYRAN] | 6.83E−01 micrograms/L AIR | 2 |  |  | 6.83E−01 micrograms/L AIR | 1
1-(3,3/5,5-dimethyl-1-cyclohexen-1-yl)-4-penten-1-one | 2.53E−03 micrograms/L AIR | 3 | 1.22E+00 micrograms/L AIR | 3 | 1.22E+00 micrograms/L AIR | 3
c1ccc(CCCc2ccccn2)cc1 [2-(3-PHENYLPROPYL)PYRIDINE] | 1.43E−04 micrograms/L AIR | 3 | 1.43E−04 micrograms/L AIR | 3 |  | 
C=C1CCCC(C)(C)C1C(=O)OC (racemic) [(+−)-METHYL 2,2-DIMETHYL-6-METHYLIDENECYCLOHEXANECARBOXYLATE] | 4.00E−01 micrograms/L AIR | 3 | 8.00E−01 micrograms/L AIR | 3 | 4.00E−01 micrograms/L AIR | 2
O=C1CCCCCCC/C=C/CCCCCCO1 [(10E)-OXACYCLOHEPTADEC-10-EN-2-ONE] | 7.17E−02 micrograms/L AIR | 2 |  |  | 2.87E−01 micrograms/L AIR | 2
C=CCCCCCCCCC=O [10-UNDECENAL] | 9.50E−03 micrograms/L AIR | 3 |  |  | 9.50E−02 micrograms/L AIR | 2
CCOC(=O)/C=C/c1ccccc1 [ETHYL (E)-3-PHENYL-2-PROPENOATE] | 7.33E−02 micrograms/L AIR | 2 |  |  | 3.67E−02 micrograms/L AIR | 2
CC(=O)CCc1ccc(O)cc1 [4-(4-HYDROXYPHENYL)-2-BUTANONE] | 1.50E−04 micrograms/L AIR | 3 |  |  | 6.00E−04 micrograms/L AIR | 1
C[C@@H]1C/C=C\CCCCCCCCCC(=O)C1 [(+)-(3R,5Z)-3-METHYL-5-CYCLOPENTADECEN-1-ONE] | 1.65E−01 micrograms/L AIR | 2 | 5.50E−01 micrograms/L AIR | 2 | 2.75E−01 micrograms/L AIR | 2
COc1ccc2ccccc2c1 [2-METHOXYNAPHTHALENE] | 1.25E−02 micrograms/L AIR | 3 |  |  | 5.00E−02 micrograms/L AIR | 3
CCCCCCCCCCC=O [UNDECANAL] | 5.42E−02 micrograms/L AIR | 3 |  |  | 2.17E−01 micrograms/L AIR | 3
CC1C/C=C/CCCCCCCCCC(=O)C1 (racemic) [(+−)-(5E)-3-METHYL-5-CYCLOPENTADECEN-1-ONE] | 2.33E−01 micrograms/L AIR | 2 |  |  | 5.83E−01 micrograms/L AIR | 1
OCCc1ccccc1 [2-PHENYLETHANOL] | 5.42E−01 micrograms/L AIR | 3 |  |  | 1.08E+00 micrograms/L AIR | 2
CCCCCC#CC(=O)OC [METHYL 2-OCTYNOATE] | 4.67E−01 micrograms/L AIR | 3 |  |  | 4.67E−01 micrograms/L AIR | 3
CCCCCCC/C=C\CCC=O [(4Z)-4-DODECENAL] | 1.03E−04 micrograms/L AIR | 2 |  |  | 2.07E−04 micrograms/L AIR | 1
CCC(C)CCCC(C)(C)O (racemic) | 5.40E+00 micrograms/L AIR | 2 |  |  | 1.08E+01 micrograms/L AIR | 2
COC(Cc1ccccc1)OC [(2,2-DIMETHOXYETHYL)BENZENE] | 3.92E+00 micrograms/L AIR | 3 |  |  | 3.92E+00 micrograms/L AIR | 2
O=CCCc1ccccc1 [3-PHENYLPROPANAL] | 2.60E+00 micrograms/L AIR | 3 |  |  | 2.60E+00 micrograms/L AIR | 3
C/C=C/C(=O)C1C(C)=CCCC1(C)C (racemic) | 1.30E−02 micrograms/L AIR | 2 | 1.08E−02 micrograms/L AIR | 3 |  | 
TRICYCLO[5.2.1.0(2,6)]DEC-3/4-EN-8-YL PROPANOATE | 7.08E−02 micrograms/L AIR | 3 |  |  | 1.42E−01 micrograms/L AIR | 2
C=CCOC(=O)CCCCC [ALLYL HEXANOATE] | 1.06E+00 micrograms/L AIR | 3 |  |  | 2.12E+00 micrograms/L AIR | 3
CCCCCCCC=O [OCTANAL] | 6.17E−01 micrograms/L AIR | 3 |  |  | 3.08E−01 micrograms/L AIR | 2
CC/C=C(\C)C(O)CCCCC (racemic) [(+−)-(E)-4-METHYL-3-DECEN-5-OL] | 2.13E−01 micrograms/L AIR | 3 |  |  | 4.27E−01 micrograms/L AIR | 3
